System: MV-4-11 cells
Experiment: Gene expression microarray analysis (Affymetrix PrimeView) and GSEA
Format: cell-based, human
Parameters: RFU PODN (11730768_x_at) / Fold change /veh PODN (11730768_x_at) / RFU LINC00158 (11744669_a_at) / Fold change /veh LINC00158 (11744669_a_at) / RFU DUSP10 (11751237_a_at) / Fold change /veh DUSP10 (11751237_a_at) / RFU ID3 (11757404_x_at) / Fold change /veh ID3 (11757404_x_at) / RFU PLEKHG5 (11737974_s_at) / Fold change /veh PLEKHG5 (11737974_s_at) / RFU LRRC4B (11730491_at) / Fold change /veh LRRC4B (11730491_at) / RFU GIMAP4 (11747438_a_at) / Fold change /veh GIMAP4 (11747438_a_at) / RFU KRT8 (11758183_x_at) / Fold change /veh KRT8 (11758183_x_at) / RFU CNN1 (11734310_a_at) / Fold change /veh CNN1 (11734310_a_at) / RFU VPS37D (11726825_at) / Fold change /veh VPS37D (11726825_at) / RFU C10orf10 (11716522_x_at) / Fold change /veh C10orf10 (11716522_x_at) / RFU KIR2DL2 /// KIR2DL4 /// KIR2DL5A /// KIR2DL5B /// KIR2DS1 /// KIR2DS2 /// KIR2DS3 /// KIR2DS4 /// KIR3DL3 /// KIR3DL3 /// KIR3DS1 (11738374_at) / Fold change /veh KIR2DL2 /// KIR2DL4 /// KIR2DL5A /// KIR2DL5B /// KIR2DS1 /// KIR2DS2 /// KIR2DS3 /// KIR2DS4 /// KIR3DL3 /// KIR3DL3 /// KIR3DS1 (11738374_at) / RFU C1QL1 (11718748_at) / Fold change /veh C1QL1 (11718748_at) / RFU TMPRSS4 (11747572_a_at) / Fold change /veh TMPRSS4 (11747572_a_at) / RFU HAMP (11756126_x_at) / Fold change /veh HAMP (11756126_x_at) / RFU RNFT2 (11725882_a_at) / Fold change /veh RNFT2 (11725882_a_at) / RFU NR4A2 (11747474_a_at) / Fold change /veh NR4A2 (11747474_a_at) / RFU ABCC12 (11746883_a_at) / Fold change /veh ABCC12 (11746883_a_at) / RFU TMEM136 (11760407_x_at) / Fold change /veh TMEM136 (11760407_x_at) / RFU CLDN22 /// WWC2 (11732394_at) / Fold change /veh CLDN22 /// WWC2 (11732394_at) / RFU HLA-DPB1 (11760878_x_at) / Fold change /veh HLA-DPB1 (11760878_x_at) / RFU SPINT1 (11716480_a_at) / Fold change /veh SPINT1 (11716480_a_at) / RFU GAP43 (11754022_s_at) / Fold change /veh GAP43 (11754022_s_at) / RFU A4GNT (11735810_at) / Fold change /veh A4GNT (11735810_at) / RFU PRB3 (11715151_x_at) / Fold change /veh PRB3 (11715151_x_at) / RFU TUBB4B (11761932_at) / Fold change /veh TUBB4B (11761932_at) / RFU CAPN14 (11732068_a_at) / Fold change /veh CAPN14 (11732068_a_at) / RFU TMCC2 (11721928_a_at) / Fold change /veh TMCC2 (11721928_a_at) / RFU IRGQ (11745062_a_at) / Fold change /veh IRGQ (11745062_a_at) / RFU FAM174B (11720279_a_at) / Fold change /veh FAM174B (11720279_a_at) / RFU TMPRSS4 (11748680_a_at) / Fold change /veh TMPRSS4 (11748680_a_at) / RFU FAM212B (11763350_a_at) / Fold change /veh FAM212B (11763350_a_at) / RFU PLEKHG5 (11743358_a_at) / Fold change /veh PLEKHG5 (11743358_a_at) / RFU ZSCAN30 (11745921_a_at) / Fold change /veh ZSCAN30 (11745921_a_at) / RFU CMKLR1 (11741424_a_at) / Fold change /veh CMKLR1 (11741424_a_at) / RFU LOC101060620 /// MAPK8IP1 (11723275_at) / Fold change /veh LOC101060620 /// MAPK8IP1 (11723275_at) / RFU SPTSSB (11747773_x_at) / Fold change /veh SPTSSB (11747773_x_at) / RFU PRSS12 (11739890_at) / Fold change /veh PRSS12 (11739890_at) / RFU BIN1 (11741810_x_at) / Fold change /veh BIN1 (11741810_x_at) / RFU WNT11 (11732464_a_at) / Fold change /veh WNT11 (11732464_a_at) / RFU C10orf10 (11716521_a_at) / Fold change /veh C10orf10 (11716521_a_at) / RFU C5orf56 (11738089_at) / Fold change /veh C5orf56 (11738089_at) / RFU CYB561 (11721691_x_at) / Fold change /veh CYB561 (11721691_x_at) / RFU ANKRD19P (11752326_a_at) / Fold change /veh ANKRD19P (11752326_a_at) / RFU OR2T12 /// OR2T33 /// OR2T8 (11738714_s_at) / Fold change /veh OR2T12 /// OR2T33 /// OR2T8 (11738714_s_at) / RFU VCAN (11748164_a_at) / Fold change /veh VCAN (11748164_a_at) / RFU JSRP1 (11732532_at) / Fold change /veh JSRP1 (11732532_at) / RFU KRTAP10-11 (11738290_x_at) / Fold change /veh KRTAP10-11 (11738290_x_at) / RFU MYO3A (11730013_a_at) / Fold change /veh MYO3A (11730013_a_at) / RFU EBF3 (11725865_a_at) / Fold change /veh EBF3 (11725865_a_at) / RFU CAMK2N1 (11719241_x_at) / Fold change /veh CAMK2N1 (11719241_x_at) / RFU C5orf56 (11738088_a_at) / Fold change /veh C5orf56 (11738088_a_at) / RFU OLFML3 (11715873_a_at) / Fold change /veh OLFML3 (11715873_a_at) / RFU LOC100653217 /// NTM (11731650_a_at) / Fold change /veh LOC100653217 /// NTM (11731650_a_at) / RFU MAPK11 (11762145_a_at) / Fold change /veh MAPK11 (11762145_a_at) / RFU FIZ1 (11724087_x_at) / Fold change /veh FIZ1 (11724087_x_at) / RFU OASL (11726364_x_at) / Fold change /veh OASL (11726364_x_at) / RFU SOX15 (11748057_x_at) / Fold change /veh SOX15 (11748057_x_at) / RFU CD79A (11719716_a_at) / Fold change /veh CD79A (11719716_a_at) / RFU HIST1H1D (11736915_at) / Fold change /veh HIST1H1D (11736915_at) / RFU CASKIN2 (11723855_a_at) / Fold change /veh CASKIN2 (11723855_a_at) / RFU LOC730098 (11760151_x_at) / Fold change /veh LOC730098 (11760151_x_at) / RFU OR4N2 (11742367_at) / Fold change /veh OR4N2 (11742367_at) / RFU PRRT2 (11749266_a_at) / Fold change /veh PRRT2 (11749266_a_at) / RFU SNX32 (11753110_a_at) / Fold change /veh SNX32 (11753110_a_at) / RFU CDHR5 (11726645_a_at) / Fold change /veh CDHR5 (11726645_a_at) / RFU RCAN1 (11760418_a_at) / Fold change /veh RCAN1 (11760418_a_at) / RFU FAM167A (11723789_a_at) / Fold change /veh FAM167A (11723789_a_at) / RFU FAM26E (11764081_at) / Fold change /veh FAM26E (11764081_at) / RFU ISYNA1 (11749810_s_at) / Fold change /veh ISYNA1 (11749810_s_at) / RFU ACY1 (11761880_at) / Fold change /veh ACY1 (11761880_at) / RFU 11764098_at / Fold change /veh 11764098_at / RFU SAMD14 (11745864_x_at) / Fold change /veh SAMD14 (11745864_x_at) / RFU NPB (11741838_a_at) / Fold change /veh NPB (11741838_a_at) / RFU TMPRSS6 (11731388_a_at) / Fold change /veh TMPRSS6 (11731388_a_at) / RFU KRTAP10-2 (11738614_at) / Fold change /veh KRTAP10-2 (11738614_at) / RFU ARHGAP8 /// PRR5-ARHGAP8 (11727945_x_at) / Fold change /veh ARHGAP8 /// PRR5-ARHGAP8 (11727945_x_at) / RFU KRTAP5-7 /// NADSYN1 (11734609_at) / Fold change /veh KRTAP5-7 /// NADSYN1 (11734609_at) / RFU RASL12 (11751679_a_at) / Fold change /veh RASL12 (11751679_a_at) / RFU CDKN2B (11736163_a_at) / Fold change /veh CDKN2B (11736163_a_at) / RFU PRF1 (11729649_at) / Fold change /veh PRF1 (11729649_at) / RFU, ZNF638 /// ZNF638-IT1 / Fold change vs veh, ZNF638 /// ZNF638-IT1 / RFU, PANK3 / Fold change vs veh, PANK3 / RFU, SH3YL1 / Fold change vs veh, SH3YL1 / RFU, ZEB2 / Fold change vs veh, ZEB2 / RFU, NRIP1 / Fold change vs veh, NRIP1 / RFU, PTTG1IP / Fold change vs veh, PTTG1IP / RFU, CAPN2 / Fold change vs veh, CAPN2 / RFU, MED14 / Fold change vs veh, MED14 / RFU, SNORA58 / Fold change vs veh, SNORA58 / RFU, C1orf63 / Fold change vs veh, C1orf63 / RFU, LRRFIP1 / Fold change vs veh, LRRFIP1 / RFU, NDUFAF7 / Fold change vs veh, NDUFAF7 / RFU, SLC12A2 / Fold change vs veh, SLC12A2 / RFU, IBTK / Fold change vs veh, IBTK / RFU, ESF1 / Fold change vs veh, ESF1 / Fold change vs veh, TMEM50B / RFU, TAOK1 / Fold change vs veh, TAOK1 / RFU, ACBD3 / Fold change vs veh, ACBD3 / RFU, TMA16 / Fold change vs veh, TMA16 / RFU, RWDD3 / Fold change vs veh, RWDD3 / RFU, BCAT1 / Fold change vs veh, BCAT1 / RFU, EDEM3 / Fold change vs veh, EDEM3 / RFU, TMEM33 / Fold change vs veh, TMEM33 / RFU, WDR75 / Fold change vs veh, WDR75 / RFU, AHCTF1 / Fold change vs veh, AHCTF1 / RFU, TFRC / Fold change vs veh, TFRC / RFU, ZDHHC17 / Fold change vs veh, ZDHHC17 / RFU, NOM1 / Fold change vs veh, NOM1 / RFU, ARL8B / Fold change vs veh, ARL8B / RFU, ZBTB11 / Fold change vs veh, ZBTB11 / RFU, TAMM41 / Fold change vs veh, TAMM41 / RFU, KIAA1704 /// LOC100996395 / Fold change vs veh, KIAA1704 /// LOC100996395 / RFU, ING1 / Fold change vs veh, ING1 / RFU, TRMT61B / Fold change vs veh, TRMT61B / RFU, FUBP3 / Fold change vs veh, FUBP3 / RFU, TP53 / Fold change vs veh, TP53 / RFU, TNKS2 / Fold change vs veh, TNKS2 / RFU, ZFP14 / Fold change vs veh, ZFP14 / RFU, ACTR2 / Fold change vs veh, ACTR2 / RFU, PPP3R1 / Fold change vs veh, PPP3R1 / RFU, PIK3R1 / Fold change vs veh, PIK3R1 / RFU, HNRNPA1 / Fold change vs veh, HNRNPA1 / RFU, RNF170 / Fold change vs veh, RNF170 / RFU, ZNF28 / Fold change vs veh, ZNF28 / RFU, RNGTT / Fold change vs veh, RNGTT / RFU, OGT / Fold change vs veh, OGT / RFU, BRD1 / Fold change vs veh, BRD1 / RFU, MARS / Fold change vs veh, MARS / RFU, ZNF655 / Fold change vs veh, ZNF655 / RFU, FAHD1 / Fold change vs veh, FAHD1 / RFU, BDP1 / Fold change vs veh, BDP1 / RFU, LRRCC1 / Fold change vs veh, LRRCC1 / RFU, ARID1A / Fold change vs veh, ARID1A / RFU, ZNF146 / Fold change vs veh, ZNF146 / RFU, ZNF330 / Fold change vs veh, ZNF330 / RFU, GPN3 / Fold change vs veh, GPN3 / RFU, C9orf123 / Fold change vs veh, C9orf123 / RFU, N4BP2L2 / Fold change vs veh, N4BP2L2 / RFU, ARFIP1 / Fold change vs veh, ARFIP1 / RFU, FAM179B / Fold change vs veh, FAM179B / RFU, BCL10 / Fold change vs veh, BCL10 / RFU, UHRF1BP1L / Fold change vs veh, UHRF1BP1L / RFU, BET1 / Fold change vs veh, BET1 / RFU, CNOT2 / Fold change vs veh, CNOT2 / RFU, ZNF268 / Fold change vs veh, ZNF268 / Fold change vs veh, ZNF507 / RFU, DGCR2 / Fold change vs veh, DGCR2 / RFU, WDSUB1 / Fold change vs veh, WDSUB1 / Fold change vs veh, HSP90B1 /// MIR3652 / RFU, ADSS / Fold change vs veh, ADSS / RFU, GK / Fold change vs veh, GK / RFU, ZNF148 / Fold change vs veh, ZNF148 / RFU, TAF9 / Fold change vs veh, TAF9 / RFU, SLC1A5 / Fold change vs veh, SLC1A5 / RFU, SLMO2 / Fold change vs veh, SLMO2 / RFU, ABCC4 / Fold change vs veh, ABCC4 / RFU, LOC101060439 /// RAP1B / Fold change vs veh, LOC101060439 /// RAP1B / RFU, RFX7 / Fold change vs veh, RFX7 / RFU, GTPBP10 / Fold change vs veh, GTPBP10 / RFU, CNEP1R1 / Fold change vs veh, CNEP1R1 / RFU, BIVM-ERCC5 /// ERCC5 / Fold change vs veh, BIVM-ERCC5 /// ERCC5 / RFU, ILF3 / Fold change vs veh, ILF3 / RFU 11762660_at / Fold change /veh 11762660_at / RFU VCAN (11757783_s_at) / Fold change /veh VCAN (11757783_s_at) / RFU DDX43 (11728927_at) / Fold change /veh DDX43 (11728927_at) / RFU KRT8 (11758188_x_at) / Fold change /veh KRT8 (11758188_x_at) / RFU NKD1 (11759106_at) / Fold change /veh NKD1 (11759106_at) / RFU SRD5A1 (11742802_a_at) / Fold change /veh SRD5A1 (11742802_a_at) / RFU TPSAB1 /// TPSB2 (11721975_s_at) / Fold change /veh TPSAB1 /// TPSB2 (11721975_s_at) / RFU GSTM3 (11746129_a_at) / Fold change /veh GSTM3 (11746129_a_at) / RFU IL23R (11737362_x_at) / Fold change /veh IL23R (11737362_x_at) / RFU TMEM51 (11727254_a_at) / Fold change /veh TMEM51 (11727254_a_at) / RFU PIWIL2 (11732686_x_at) / Fold change /veh PIWIL2 (11732686_x_at) / RFU ORM1 (11744905_x_at) / Fold change /veh ORM1 (11744905_x_at) / RFU CCDC152 (11743942_at) / Fold change /veh CCDC152 (11743942_at) / RFU ECM1 (11717891_a_at) / Fold change /veh ECM1 (11717891_a_at) / RFU IL23R (11748794_a_at) / Fold change /veh IL23R (11748794_a_at) / RFU TNFAIP8L3 (11732012_x_at) / Fold change /veh TNFAIP8L3 (11732012_x_at) / RFU MBOAT4 (11741988_at) / Fold change /veh MBOAT4 (11741988_at) / RFU 11764193_at / Fold change /veh 11764193_at / RFU TMEM53 (11763286_at) / Fold change /veh TMEM53 (11763286_at) / RFU MAGEB2 (11727129_at) / Fold change /veh MAGEB2 (11727129_at) / RFU TMEM200A (11744735_a_at) / Fold change /veh TMEM200A (11744735_a_at) / RFU CCDC152 (11751479_a_at) / Fold change /veh CCDC152 (11751479_a_at) / RFU FAM211A (11726209_a_at) / Fold change /veh FAM211A (11726209_a_at) / RFU RGS16 (11746705_a_at) / Fold change /veh RGS16 (11746705_a_at) / RFU VCAN (11755009_s_at) / Fold change /veh VCAN (11755009_s_at) / RFU RHOB (11743442_s_at) / Fold change /veh RHOB (11743442_s_at) / RFU RGS16 (11720943_a_at) / Fold change /veh RGS16 (11720943_a_at) / RFU RGS16 (11720944_at) / Fold change /veh RGS16 (11720944_at) / RFU, VPS4B / Fold change vs veh, VPS4B / RFU, CREB1 / Fold change vs veh, CREB1 / RFU, DNAJC13 / Fold change vs veh, DNAJC13 / RFU, GNAQ / Fold change vs veh, GNAQ / RFU, CDK5R1 / Fold change vs veh, CDK5R1 / RFU, ZRANB3 / Fold change vs veh, ZRANB3 / RFU, CUL4A / Fold change vs veh, CUL4A / RFU, CCNY / Fold change vs veh, CCNY / RFU, UFL1 / Fold change vs veh, UFL1 / RFU, COG3 / Fold change vs veh, COG3 / RFU, DIAPH2 / Fold change vs veh, DIAPH2 / RFU, SKA2 / Fold change vs veh, SKA2 / RFU, AFF3 / Fold change vs veh, AFF3 / RFU, LMF1 / Fold change vs veh, LMF1 / RFU, IPO11 / Fold change vs veh, IPO11 / RFU, DFFB / Fold change vs veh, DFFB / RFU, FOXP1 / Fold change vs veh, FOXP1 / RFU, CARD8 / Fold change vs veh, CARD8 / RFU, STRN3 / Fold change vs veh, STRN3 / RFU, ADK / Fold change vs veh, ADK / RFU, RASSF2 / Fold change vs veh, RASSF2 / RFU, WIPF1 / Fold change vs veh, WIPF1 / RFU, LARP1B / Fold change vs veh, LARP1B / RFU, RASA1 / Fold change vs veh, RASA1 / RFU, RB1 / Fold change vs veh, RB1 / RFU, PPFIA1 / Fold change vs veh, PPFIA1 / RFU, MAT2A / Fold change vs veh, MAT2A / RFU, CCT5 / Fold change vs veh, CCT5 / RFU, WDR92 / Fold change vs veh, WDR92 / RFU, CUX1 / Fold change vs veh, CUX1 / RFU, TTC7A / Fold change vs veh, TTC7A / RFU, TMEM135 / Fold change vs veh, TMEM135 / RFU, DEPTOR / Fold change vs veh, DEPTOR / RFU, CPM / Fold change vs veh, CPM / RFU, DNAJB6 / Fold change vs veh, DNAJB6 / RFU, CACNA2D3 / Fold change vs veh, CACNA2D3 / RFU, DTX4 / Fold change vs veh, DTX4 / RFU, TFCP2 / Fold change vs veh, TFCP2 / RFU, GMCL1 /// GMCL1P1 / Fold change vs veh, GMCL1 /// GMCL1P1 / RFU, AEBP2 / Fold change vs veh, AEBP2 / RFU, SNHG1 /// SNORD22 /// SNORD25 /// SNORD26 /// SNORD27 /// SNORD28 /// SNORD29 /// SNORD31 / Fold change vs veh, SNHG1 /// SNORD22 /// SNORD25 /// SNORD26 /// SNORD27 /// SNORD28 /// SNORD29 /// SNORD31 / Fold change (Aza/veh), C12orf56 (ProbeSet 11735607_a_at) / Fold change (ACY-1035/veh), C12orf56 (ProbeSet 11735607_a_at) / Fold change (Aza/veh), FGFR1OP (ProbeSet 11751329_s_at) / Fold change (ACY-1035/veh), FGFR1OP (ProbeSet 11751329_s_at) / Fold change (Aza/veh), VPS36 (ProbeSet 11739960_a_at) / Fold change (ACY-1035/veh), VPS36 (ProbeSet 11739960_a_at) / RFU SYPL1 (11715823_x_at) / Fold change /veh SYPL1 (11715823_x_at) / RFU IGFBP7 (11715501_s_at) / Fold change /veh IGFBP7 (11715501_s_at) / RFU REEP3 (11722064_at) / Fold change /veh REEP3 (11722064_at) / RFU IGLL1 (11728026_x_at) / Fold change /veh IGLL1 (11728026_x_at): dose or concentration left out as unconfirmed
Details: MV-4-11 cells, 48 hours

Nc1ncn([C@@H]2O[C@H](CO)[C@@H](O)[C@H]2O)c(=O)n1 [azacitidine]
Fold change /veh PODN (11730768_x_at): 1.12

Reference: PMC5218480 (PLoS ONE, 2017)
